Data on one compound can be found in paper PMC5264272 (EBioMedicine, 2016).

The test system of one test is murine Treg cells. The experiment in a line: Treg suppression assay with Tregs pre-treated in vitro. It counts as cell-based. The following applies: 10 μM, 2 h pre-treatment of Tregs, washing, 3-day suppression assay.
Test [1] has as its system human multiple myeloma cells. Conditions: immunodeficient mice; ref Chauhan et al., 2012; cited from earlier work.

Regarding `CC(=O)c1cc([N+](=O)[O-])c(Sc2cccc(Cl)c2Cl)s1` [P5091], the “effect on murine Treg function in vitro” value with murine Treg cells is listed as “almost completely abrogated Treg function”. The “growth of human multiple myeloma cells as xenografts” value in test [1] was “direct effects on the growth”.
